{"source": "patent US9144594B2", "about": "“Cathepsin L mediated diseases and associated methods and products” (University of Miami, priority 2005, dated 2015)", "key": {"cathepsin L": {"biological_target": "T1, cathepsin L (Homo sapiens, UniProt P07711)", "T1 construct": "purchased Sigma, Saint Louis, Mo", "T1 sequence (P07711 114-333, species assumed)": "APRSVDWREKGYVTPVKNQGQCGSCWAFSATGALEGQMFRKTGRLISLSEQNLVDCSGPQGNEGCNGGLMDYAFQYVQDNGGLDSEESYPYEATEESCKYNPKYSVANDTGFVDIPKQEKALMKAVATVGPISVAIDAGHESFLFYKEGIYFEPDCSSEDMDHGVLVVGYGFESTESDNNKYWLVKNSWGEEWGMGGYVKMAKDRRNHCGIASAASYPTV", "assay": "Processing of recombinant dynamin by purified CatL in vitro", "format": "biochemical", "method": "Reinheckel and colleges have developed the bioinformatics tool ‘PEPS’ (Prediction of Endopeptidase Substrates) to predict endopeptidase cleavage sites. By using PEPS, three putative cathepsin L sites within dynamin were identified (FIG. 4A). To assess whether cathepsin L could cleave dynamin at neutral pH 7.0, recombinant dynamin 1 was incubated with purified cathepsin L (Stressgene) and respective proteolytic fragments were determined using anti-dynamin antibodies that recognize N-terminal GTPase domain (Stressgene). […] The most prominent proteolytic fragment traveled with molecular weight of approximately 40 kD. […] Thus, self-assembly of dynamin:GTPγS protected from cathepsin L cleavage. The middle domain and the […] mediate dynamin self-assembly into higher order structures. Based on the 3D-structure of self-assembled dynamin determined by cry-EM, the middle and the GAP domains are localized within self-assembled dynamin and thus amino acid sequences situated within either of these domains are predicted to be inaccessible for cathepsin L. Since activity of cathepsin L at pH 7.0 was marginal if GTP was not added in the assay, in order to examine whether GTPγS and thus self-assembly can protect from cathepsin L cleavage in general, assays were performed at lower pHs. As expected, at pH 5.0 and 6.0 cathepsin L potently proteolyzed recombinant dynamin (FIG. 4E). […] Thus, generation of 40 kD fragment upon addition of GTP in the assay and protection of the cleavage by GTPγS are consistent with primary cleavage site for cathepsin L to be present within the middle domain.\nGTP in vitro and in vivo. To further examine if proteolysis of dynamin by cytoplasmic CatL occurs during proteinuric kidney disease, it was examined whether purified dynamin is cleaved by CatL in vitro at neutral pH. The PEPS algorithm identified three putative CatL recognition motifs within dynamin (FIG. 19A): amino acids 55-59 (LPRGS; SEQ ID NO.28) within the GTPase domain, 354-359 (ELSGGA; SEQ ID NO.29) within the middle domain, and 614-618 (FLRAG; SEQ ID NO.30) within the pleckstrin-homology (PH) domain. […] The cleavage pattern obtained in vitro is almost identical to that observed in podocytes after addition of LPS (FIG. 18A, compare lanes 3 and 5). p40 is the predicted size of the N-terminal fragment after cleavage at the ELSGGA sequence (FIG. 19A; SEQ ID NO.29). Another fragment, p55, is observed in the absence of added protease (FIG. 19C, lane 1), likely during protein preparation. Thus, p55 is not a precursor of p40. Furthermore, incubation of dynamin with CatB generated p55 in a nucleotide-independent manner (FIG. 19F, lanes 2-4), whereas furin, another protease also found in podocytes in vivo, was unable to cleave dynamin (FIG. 19F, lanes 6-8). Thus, while p55 is produced by a number of proteases and thus represents a “hot spot” for proteolysis, p40 is generated by CatL only when dynamin is in the GTP-bound conformation.\nAt pH 5.0 and 6.0, CatL was highly reactive towards recombinant dynamin, even in the absence of GTP (FIG. 19D, lanes 2 and 4).\nRecombinant dynamin was purified as described (Damke et al., 2001). 1 μg of dynamin (10 pmol) was diluted in buffer containing 200 mM NaCl, 10 mM HEPES pH 7.0, 2 mM EGTA, 1 mM MgCl2 and 1 mM DTT. When indicated 200 μM of GTP or 1 mM of GTPγS was added, and dynamin was allowed to bind nucleotides for 10 min on ice. Reaction was initiated by addition of 0.5 μl of purified CatL (S.A. 4.13 units/mg of protein from Sigma, Saint Louis, Mo.), and samples were placed at 37° C. in the water bath for 10 min. Total assay volume was 20 μl. Reaction was terminated with addition of E-64d inhibitor (Sigma, Saint Louis, Mo.), and sample buffer. For Western blot analysis 5 μl of the samples was run on 10% SDS-PAGE. When CatB (S.A. 3 units/mg of protein from Sigma, Saint Louis, Mo.) or recombinant human furin (from R&D Systems, Minneapolis, Minn.) were used, 2 μl of the enzymes were added in the assay."}, "[1]": {"tested_on": "dynamin-dynamin interactions", "assay": "FLIM analysis of dynamin-dynamin interactions (self-assembly) in podocytes", "format": "cell-based, mouse", "conditions": "for Mean Lifetime (γ1): Table 4, donor GTPase-a488, acceptor Hudy1-a568, in ps", "method": "In one embodiment the cell-based assay to monitor dynamin-dynamin interactions is performed on a cultured mouse podocyte cell line and the readout of dynamin self-assembly using fluorescence lifetime imaging microscopy (FLIM). FLIM is based on the fluorescence resonance energy transfer (FRET) between the donor and acceptor that shortens the lifetime of the donor if the acceptor distance is within ≈100 Å (10 nm). […] The assay is based on overexpressing dynamin in podocytes, and subsequently staining fixed cells with monoclonal anti-dynamin antibodies that have been conjugated with donor or acceptor florophores. In one embodiment of the invention, Alexa-488 is used as the donor florophore and Alexa-568 is used as the acceptor florophore. In yet another embodiment the donor florophore is dynamin conjugated enhanced-cyan fluorescence protein (ECFP) and the acceptor is dynamin conjugated enhanced yellow-fluorescence protein (EYFP). It will be appreciated by the person of ordinary skill in the art that numerous combinations of FRET donor and acceptors can be used, which are readily available and known. In one embodiment, the FLIM assay is carried out in COS cells and the donor can be selected from the list consisting of: ECFP-WT, ECFP-1690K, ECFP-K44A, ECFP-K694A, and the -acceptor can be selected from the list consisting of: EYFP, EYFP-WT, EYFP-K44A, EYFP-1690K, EYFP-K694A. In yet another embodiment the FLIM assay is performed in podocytes and the donor is GTPase-Alexa488 and the acceptor is selected from the list consisting of: DAM-Alexa568, GTPase-Alexa568, and Hudyl-Alexa568. Cells are stained by mixing both donor and acceptor florophores in equal amounts, and examining the spatially-restricted lifetime shortening in cells detects the localization of dynamin-dynamin interactions in cells. Since dynamin-dynamin interactions are vital for the function of the podocyte, it will be appreciated by the person of ordinary skill in the art that this assay can now be used to screen peptides, small molecules or drugs which can affect these molecular interactions. For example such molecules are cytocholasin D, jasplakinolide, colchisine, dynK44A, dynK694A, dynWT, dynI690K, dynR725A (SEQ ID NO.4), dynL356Q, G358V, (SEQ ID NO.3) any combination thereof, etc.\nIn order to test the hypothesis that self-assembly of dynamin was protecting its cathepsin L processing in cultured podocytes, dynamin self-assembly in live cells was examined using fluorescence lifetime imaging microscopy (FLIM). FLIM is based on the fluorescence resonance energy transfer (FRET) between the donor and the acceptor that shortens the lifetime of the donor if the acceptor distance is within ≈100 Å (10 nm). […] A FLIM-assay was developed that specifically detects dynamin self-assembly into the higher order structures in podocytes. The assay is based on overexpressing dynamin in podocytes, and subsequently staining fixed cells with monoclonal anti-dynamin antibodies that have been conjugated with either Alexa-488 (donor florophore) or Alexa-568 (acceptor florophore). Cells are stained by mixing both florophores in equal amounts, and examining lifetime of Alexa-488. […] Importantly, FRET only occurred in the vicinity of the membrane. […] Thus, both dominant activating mutants, dynK694A and dynR725A, are impaired for assembly into a supramolecular structures in podocytes under normal conditions. […] Loss of FRET measured FLIM correlates with the loss of p40 proteolytic fragment in cultured podocytes. And presence of p40 in cells expressing dynR725A under normal conditions correlates with the lack of dynR725A assembly detected by FLIM. The opposite is true for the dynWT; lack of p40 under control conditions when FLIM is present, and appearance of the p40 upon LPS treatment with no measurable FRET. […] Finally, proteolytic processing of dynamin after LPS treatment is also observed in vivo. […]"}, "[2]": {"tested_on": "dynamin-dynamin interactions", "assay": "FLIM analysis of dynamin-dynamin interactions in live COS cells", "format": "cell-based", "text": "FLIM is based on the fluorescence resonance energy transfer (FRET) between the donor and acceptor that shortens the lifetime of the donor if the acceptor distance is within ≈100 Å (10 nm). […] To this end, dynamin was tagged with either ECFP or EYFP on its N- and C-termini. Fusion proteins were expressed in COS cells, because these cells are flattened and have minimal background autofluorescence, which allows clear visualization of cells by wide-field microscopy.\nThe observed decrease in fluorescence lifetime of CFP-dynamin in cells expressing EYFP-dynamin could result from interactions between dynamin monomers within tetramers/dimers, or from interactions between assembled tetramers/dimmers into higher order structures (FIG. 8C). To distinguish these two possibilities, we used FLIM to examine dynI690K. […] The longer average lifetimes of dynI690K than dynwt argue strongly that the assay detects higher order dynamin self-assembly and not tetramer formation."}, "dynamin": {"tested_on": "dynamin", "assay": "Dynamin self-assembly, apparent affinity measured in vitro", "format": "biochemical", "text": "The fact that this significant decrease in the fluorescence lifetime of ECFP is statistically insignificant is due to high fluctuations of the lifetimes between different cells (high error bar in Table 3). This is most likely due to ability of dynK694A to overcome its assembly defect under certain circumstances as shown in vitro. The fact that ECFP-dynK694A has a faster lifetime than ECFP-dynI690K is in agreement with its less severe assembly defect measured in vitro (apparent affinity of dynK694A is ˜7-fold lower then dynWT, whereas it is unmeasurable for dynI690K)."}}, "note": "Entries after “also recorded” stand apart in the source; their conditions may differ.", "data": [{"molecule": "Nc1nc2c(ncn2[C@@H]2O[C@H](COP(=O)(O)OP(=O)(O)OP(=O)(O)O)[C@@H](O)[C@H]2O)c(=O)[nH]1", "note": "[GTP]", "values": [{"measurement": "cleavage of dynamin by cathepsin L, in words", "setting": "cathepsin L; pH 7.0", "result": "resulted in significant cleavage of dynamin by cathepsin L; also recorded: resulted in the generation of a prominent proteolytic fragment"}]}, {"molecule": "Nc1nc2c(ncn2[C@@H]2O[C@H](COP(=O)(O)OP(=O)(O)OP(O)(O)=S)[C@@H](O)[C@H]2O)c(=O)[nH]1", "note": "[GTPγS]", "values": [{"measurement": "cleavage of dynamin by cathepsin L, in words", "setting": "cathepsin L; acidic pH (5.0 and 6.0)", "result": "completely inhibited"}, {"measurement": "cleavage of dynamin by cathepsin L, in words", "setting": "cathepsin L; acidic pH (5.0 and 6.0), listed as GTP7S", "result": "completely inhibited"}, {"measurement": "cleavage of dynamin by cathepsin L, in words", "setting": "cathepsin L; acidic pH (5.0 and 6.0), listed as GTPgammaS", "result": "protects from cathepsin L mediated cleavage"}, {"measurement": "cleavage of dynamin by cathepsin L, in words", "setting": "cathepsin L; pH 7.0", "result": "abolished dynamin cleavage by cathepsin L; also recorded: did not stimulate cleavage by CatL"}, {"measurement": "cleavage of dynamin by cathepsin L, in words", "setting": "cathepsin L; pH 7.0, listed as GTPgammaS", "result": "inhibited"}]}, {"molecule": "C/C1=C\\[C@H](C)C[C@H](C)OC(=O)C[C@H](c2ccc(O)cc2)NC(=O)[C@@H](Cc2c(Br)[nH]c3ccccc23)N(C)C(=O)[C@H](C)NC(=O)[C@@H](C)C1", "note": "[Jaspl., jasplakinolide, reference compound]", "values": [{"measurement": "Mean Lifetime (γ1)", "setting": "[1]", "result": "2254 ± 58"}, {"measurement": "dynamin self-assembly by FLIM, in words", "setting": "[1]; podocytes pretreated", "result": "did not effect dynamin self-assembly at the membrane"}, {"measurement": "dynamin-dynamin interactions measured by FLIM, in words", "setting": "[2]; COS cells pre-treated", "result": "had no effect"}, {"measurement": "Mean Lifetime (γ1) ps", "setting": "[2]; Table 3, donor CFP-WT, acceptor YFP-WT, cells treated with the substance", "result": "845 ± 263", "unit": "ps"}]}, {"molecule": "dynI690K: dynamin mutant with defective higher order assembly of tetramers (protein) MGNRGMEDLIPLVNRLQDAFSAIGQNADLDLPQIAVVGGQSAGKSSVLENFVGRDFLPRGSGIVTRRPLVLQLVNATTEYAEFLHCKGKKFTDFEEVRLEIEAETDRVTGTNKGISPVPINLRVYSPHVLNLTLVDLPGMTKVPVGDQPPDIEFQIRDMLMQFVTKENCLILAVSPANSDLANSDALKVAKEVDPQGQRTIGVITKLDLMDEGTDARDVLENKLLPLRRGYIGVVNRSQKDIDGKKDITAALAAERKFFLSHPSYRHLADRMGTPYLQKVLNQQLTNHIRDTLPGLRNKLQSQLLSIEKEVEEYKNFRPDDPARKTKALLQMVQQFAVDFEKRIEGSGDQIDTYELSGGARINRIFHERFPFELVKMEFDEKELRREISYAIKNIHGIRTGLFTPDMAFETIVKKQVKKIREPCLKCVDMVISELISTVRQCTKKLQQYPRLREEMERIVTTHIREREGRTKEQVMLLIDIELAYMNTNHEDFIGFANAQQRSNQMNKKKTSGNQDEILVIRKGWLTINNIGIMKGGSKEYWFVLTAENLSWYKDDEEKEKKYMLSVDNLKLRDVEKGFMSSKHIFALFNTEQRNVYKDYRQLELACETQEEVDSWKASFLRAGVYPERVGDKEKASETEENGSDSFMHSMDPQLERQVETIRNLVDSYMAIVNKTVRDLMPKTIMHLMKNNTKEFIFSELLANLYSCGDQNTLMEESAEQAQRRDEMLRMYHALKEALSIIGDINTTTVSTPMPPPVDDSWLQVQSVPAGRRSPTSSPTPQRRAPAVPPARPGSRGPAPGPPPAGSALGGAPPVPSRPGASPDPFGPPPQVPSRPNRAPPGVPSRSGQASPSRPESPRPPFDL", "values": [{"measurement": "Mean Lifetime (γ1)", "setting": "[1]", "result": "2359 ± 120"}, {"measurement": "apparent affinity for self-assembly, fold lower than dynWT", "setting": "dynamin", "result": "unmeasurable"}]}]}
